Results on one compound are retold here after ChEMBL document CHEMBL2073982, “Bumetanide is not transported by the Ntcp or by the oatp: evidence for a third organic anion transporter in rat liver cells” (Biochim Biophys Acta, 1996).

For the data set, the target named is T1, Solute carrier organic anion transporter family member 1A1 (Rattus norvegicus, UniProt P46720).
T1 sequence (P46720 whole entry): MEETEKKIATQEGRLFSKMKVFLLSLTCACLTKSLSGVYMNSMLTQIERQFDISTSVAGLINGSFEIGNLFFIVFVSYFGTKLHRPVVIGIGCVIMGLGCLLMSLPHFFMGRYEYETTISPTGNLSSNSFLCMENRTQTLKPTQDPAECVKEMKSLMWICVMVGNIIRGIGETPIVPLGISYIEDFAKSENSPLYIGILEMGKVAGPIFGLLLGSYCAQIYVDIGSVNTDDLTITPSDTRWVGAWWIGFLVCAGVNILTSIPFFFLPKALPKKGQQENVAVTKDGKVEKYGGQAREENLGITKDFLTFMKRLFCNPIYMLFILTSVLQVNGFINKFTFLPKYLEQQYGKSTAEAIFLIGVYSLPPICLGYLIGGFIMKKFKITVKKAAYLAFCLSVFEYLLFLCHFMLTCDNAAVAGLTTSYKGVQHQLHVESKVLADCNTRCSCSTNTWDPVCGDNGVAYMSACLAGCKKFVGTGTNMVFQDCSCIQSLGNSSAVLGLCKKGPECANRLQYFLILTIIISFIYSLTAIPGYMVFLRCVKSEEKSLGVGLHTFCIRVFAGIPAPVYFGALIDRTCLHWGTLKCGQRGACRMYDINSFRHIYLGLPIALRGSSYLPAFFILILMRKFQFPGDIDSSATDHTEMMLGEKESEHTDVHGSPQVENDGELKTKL
In words: TP_TRANSPORTER: uptake in Xenopus laevis oocytes. The data set is classed as functional, cell-based. Particulars: oocyte.

Regarding `CCCCNc1cc(C(=O)O)cc(S(N)(=O)=O)c1Oc1ccccc1` [BUMETANIDE], the Activity entry was “is not a substrate [-]”.
